Results as given in ChEMBL document CHEMBL1201862, “PubChem BioAssay data set” (2004).
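48-hour exposure; five concentrations; linearly interpolated endpoints. Here, GI50 denotes the concentration required for 50% inhibition of growth.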 Active and inactive are the calls of the source. No stated cut-off is given here; in the data, active = GI50 up to about 1.1 µM and inactive = higher.

Assays:
Test in all cases: NCI tumour cell line growth inhibition, 48 h
HOP-92 = test system: HOP-92
UACC-257 = test system: UACC-257
HT-29 = test system: HT-29
SN12C = test system: SN12C
TK-10 = test system: TK-10
SK-MEL-28 = test system: SK-MEL-28
SR = test system: SR
SNB-19 = test system: SNB-19
MDA-MB-231 = test system: MDA-MB-231
SF-295 = test system: SF-295
SK-MEL-5 = test system: SK-MEL-5
NCI-H23 = test system: NCI-H23
U-251 = test system: U-251
SW-620 = test system: SW-620
T47D = test system: T47D
A498 = test system: A498
OVCAR-4 = test system: OVCAR-4
NCI-H226 = test system: NCI-H226
MCF7 = test system: MCF7
UACC-62 = test system: UACC-62
HL-60 = test system: HL-60
K562 = test system: K562
RPMI-8226 = test system: RPMI-8226
MDA-N = test system: MDA-N
OVCAR-5 = test system: OVCAR-5
HCC 2998 = test system: HCC 2998
RXF 393 = test system: RXF 393
SK-MEL-2 = test system: SK-MEL-2
LOX IMVI = test system: LOX IMVI
Malme-3M = test system: Malme-3M
COLO 205 = test system: COLO 205
OVCAR-8 = test system: OVCAR-8
HCT-15 = test system: HCT-15
CAKI-1 = test system: CAKI-1
A549 = test system: A549
Hs-578T = test system: Hs-578T
786-0 = test system: 786-0
NCI-H460 = test system: NCI-H460
HCT-116 = test system: HCT-116
CCRF-CEM = test system: CCRF-CEM
UO-31 = test system: UO-31
PC-3 = test system: PC-3
SF-268 = test system: SF-268
EKVX = test system: EKVX
MDA-MB-435 = test system: MDA-MB-435
OVCAR-3 = test system: OVCAR-3
BT-549 = test system: BT-549
HOP-62 = test system: HOP-62
DU-145 = test system: DU-145
NCI/ADR-RES = test system: NCI/ADR-RES
NCI-H522 = test system: NCI-H522
ACHN = test system: ACHN
SK-OV-3 = test system: SK-OV-3
SF-539 = test system: SF-539
SNB-75 = test system: SNB-75
M14 = test system: M14
IGROV-1 = test system: IGROV-1
MOLT-4 = test system: MOLT-4
KM12 = test system: KM12

COc1cc(I)c2c3c1OC1C34CCN(C)C(C2)C4=CC(I)C1(OC)OC (stereo not drawn)
GI50 (HOP-92): 13.1 µM (inactive) | GI50 (UACC-257): 19.3 µM (inactive) | GI50 (HT-29): 26.5 µM (inactive) | GI50 (SN12C): 16.3 µM (inactive) | GI50 (TK-10): 21.3 µM (inactive) | GI50 (SK-MEL-28): 18.2 µM (inactive) | GI50 (SR): 16.1 µM (inactive) | GI50 (SNB-19): 27.4 µM (inactive) | GI50 (MDA-MB-231): 20.1 µM (inactive) | GI50 (SF-295): 46.2 µM (inactive) | GI50 (SK-MEL-5): 17.1 µM (inactive) | GI50 (NCI-H23): 24.5 µM (inactive) | GI50 (U-251): 18.3 µM (inactive) | GI50 (SW-620): 19 µM (inactive) | GI50 (T47D): 14.6 µM (inactive) | GI50 (A498): 32.2 µM (inactive) | GI50 (OVCAR-4): 15 µM (inactive) | GI50 (NCI-H226): 22.6 µM (inactive) | GI50 (MCF7): 20.7 µM (inactive) | GI50 (UACC-62): 19.2 µM (inactive) | GI50 (HL-60): 17 µM (inactive) | GI50 (K562): 20.7 µM (inactive) | GI50 (RPMI-8226): 19.6 µM (inactive) | GI50 (MDA-N): 19.9 µM (inactive) | GI50 (OVCAR-5): 24.2 µM (inactive) | GI50 (HCC 2998): 15.3 µM (inactive) | GI50 (RXF 393): 16.3 µM (inactive) | GI50 (SK-MEL-2): 16.4 µM (inactive) | GI50 (LOX IMVI): 19.6 µM (inactive) | GI50 (Malme-3M): 20.7 µM (inactive) | GI50 (COLO 205): 19.4 µM (inactive) | GI50 (OVCAR-8): 20.1 µM (inactive) | GI50 (HCT-15): 25.5 µM | GI50 (CAKI-1): 22.4 µM (inactive) | GI50 (A549): 29.6 µM (inactive) | GI50 (Hs-578T): 53.2 µM (inactive) | GI50 (786-0): 20.3 µM (inactive) | GI50 (NCI-H460): 19.1 µM (inactive) | GI50 (HCT-116): 23.4 µM (inactive) | GI50 (CCRF-CEM): 5.36 µM (inactive) | GI50 (UO-31): 18.4 µM (inactive) | GI50 (PC-3): 24.4 µM (inactive) | GI50 (SF-268): 25.6 µM (inactive) | GI50 (EKVX): 29.6 µM (inactive) | GI50 (MDA-MB-435): 13.2 µM (inactive) | GI50 (OVCAR-3): 19.2 µM (inactive) | GI50 (BT-549): 23.9 µM (inactive) | GI50 (HOP-62): 19.1 µM (inactive) | GI50 (DU-145): 18.7 µM (inactive) | GI50 (NCI/ADR-RES): 28.2 µM (inactive) | GI50 (NCI-H522): 21.2 µM (inactive) | GI50 (ACHN): 27 µM (inactive) | GI50 (SK-OV-3): 24.8 µM (inactive) | GI50 (SF-539): 18.1 µM (inactive) | GI50 (SNB-75): 15.9 µM (inactive) | GI50 (M14): 37.4 µM (inactive) | GI50 (IGROV-1): 20.1 µM (inactive) | GI50 (MOLT-4): 16.2 µM (inactive) | GI50 (KM12): 17.5 µM (inactive)

O=C(CCl)N1CCCCC1C1(c2cc3ccccc3[nH]2)OCCO1 (stereo not drawn)
GI50 (HOP-92): 1 µM (active) | GI50 (UACC-257): 4.7 µM (inactive) | GI50 (HT-29): 3.66 µM (inactive) | GI50 (SN12C): 2.25 µM (inactive) | GI50 (TK-10): 3.5 µM (inactive) | GI50 (SK-MEL-28): 11.6 µM (inactive) | GI50 (SR): 0.454 µM (active) | GI50 (SNB-19): 10.6 µM (inactive) | GI50 (MDA-MB-231): 2.69 µM (inactive) | GI50 (SF-295): 3.77 µM (inactive) | GI50 (SK-MEL-5): 3.08 µM (inactive) | GI50 (NCI-H23): 2.21 µM (inactive) | GI50 (U-251): 2.86 µM (inactive) | GI50 (SW-620): 4.19 µM (inactive) | GI50 (T47D): 7.45 µM (inactive) | GI50 (A498): 4.6 µM (inactive) | GI50 (OVCAR-4): 1.73 µM (inactive) | GI50 (NCI-H226): 6.53 µM (inactive) | GI50 (MCF7): 2.56 µM (inactive) | GI50 (UACC-62): 3.14 µM (inactive) | GI50 (HL-60): 0.685 µM (active) | GI50 (K562): 1.93 µM (inactive) | GI50 (RPMI-8226): 2.12 µM (inactive) | GI50 (MDA-N): 2.34 µM (inactive) | GI50 (OVCAR-5): 4.17 µM (inactive) | GI50 (HCC 2998): 10.4 µM (inactive) | GI50 (RXF 393): 3.8 µM (inactive) | GI50 (SK-MEL-2): 7.98 µM (inactive) | GI50 (LOX IMVI): 0.0349 µM (active) | GI50 (Malme-3M): 4.47 µM (inactive) | GI50 (COLO 205): 2.94 µM (inactive) | GI50 (OVCAR-8): 4.24 µM (inactive) | GI50 (HCT-15): 4.82 µM | GI50 (CAKI-1): 0.828 µM (active) | GI50 (A549): 5.61 µM (inactive) | GI50 (Hs-578T): 3.3 µM (inactive) | GI50 (786-0): 0.869 µM (active) | GI50 (NCI-H460): 9.71 µM (inactive) | GI50 (HCT-116): 2.84 µM (inactive) | GI50 (CCRF-CEM): 0.281 µM (active) | GI50 (UO-31): 3.73 µM (inactive) | GI50 (PC-3): 2.98 µM (inactive) | GI50 (SF-268): 3.22 µM (inactive) | GI50 (EKVX): 1.5 µM (inactive) | GI50 (MDA-MB-435): 3.36 µM (inactive) | GI50 (OVCAR-3): 2.01 µM (inactive) | GI50 (BT-549): 2.05 µM (inactive) | GI50 (HOP-62): 3.12 µM (inactive) | GI50 (DU-145): 5.11 µM (inactive) | GI50 (NCI/ADR-RES): 3.05 µM (inactive) | GI50 (NCI-H522): 0.194 µM (active) | GI50 (ACHN): 5 µM (inactive) | GI50 (SK-OV-3): 5.78 µM (inactive) | GI50 (SF-539): 1.65 µM (inactive) | GI50 (SNB-75): 2.65 µM (inactive) | GI50 (M14): 3.99 µM (inactive) | GI50 (IGROV-1): 0.198 µM (active) | GI50 (MOLT-4): 1.85 µM (inactive) | GI50 (KM12): 1.77 µM (inactive)
